Assay results taken from patent US6827926B2, “Metallotetrapyrrolic photosensitizing agents for use in photodynamic therapy” (Miravant Pharmaceuticals, Inc., priority 2001, dated 2004).

System: V79 (Chinese Hamster Lung Fibroblasts) cells
Test: In vitro cytotoxicity assay (light EC50, Alamar blue)
Format: cell-based
Conditions: Table 3 porphyrins, 24 h drug incubation, 532 nm, 1.25 J/cm^2, read-out: In Vitro EC50 Light
Method: The in vitro biological evaluation of photosensitizers for their ability to photosensitize cells was performed using standard procedures. Using 5% FBS/DMEM phenol-free media, wells (180 μl/well) were plated with 5×10^4 V79 (Chinese Hamster Lung Fibroblasts) cells/ml into two 96 well plates. Plate 1 was light-treated and plate 2 served as a control. The plates were Incubated at 37° C., 5% CO2 for 3-5 hours. Standard solutions of the photosensitizers were dissolved in pre-filtered Dimethyl Sulfoxide (DMSO). Drug was diluted in 5% FBS DMEM phenol free medium. Final drug concentrations for light and dark experiments were 0.01, 0.1, 1.0, 3.0 and 5.0 μM. Twenty microliters of each concentration were added to six replicate wells to the light and dark plate. The plates were wrapped in aluminum foil to avoid photoactivation and mixed in a gyratory shaker for approximately 2 minutes. Both plates were incubated for 24 hours at 37° C., 5% CO2. After a 24 hour incubation, drug-containing media was aspirated from the plates. Each well was rinsed with 180 μl Hepes buffer salt solution (HBSS) then aspirated to remove the HBSS. 180 μl of fresh media were added (5% FBS/DMEM phenol-free) to each well. […] Plate 2 was not light treated. Immediately after light treatment, 20 μl Alamar blue was added to each well in plate 1. Alamar blue was added to plate 2 immediately after fresh media was added. The plates were mixed on a gyratory shaker for 5 min.
Both plates were incubated under dark conditions for 24 hours at 37° C., 5% CO2. After 24 hour incubation, the plates were read on a plate reader spectrophotometer (Spectra Max 250) at wavelengths 570 and 600 nm. and the percentage of cell survival recorded.

In order of rising EC50:
1. CCC1=C(C)C2=[N+]3C1=Cc1c(C)c(CC)c4[n]1[Pt-2]31[n]3c(c(C)c(CCC(=O)NCCOC)c3=CC3=[N+]1C(=C4)C(C)=C3CCC(=O)NCCOC)=C2 (stereo not shown) [Example 65, Platinum Mesoporphyrin di(2-methoxyethylamide)]  0.05 µM
2. CCC1=C(C)c2cc3[n-]c(cc4nc(cc5[n-]c(cc1n2)c(C)c5CC)C(C)=C4CCC(=O)NCCCO)c(CCC(=O)NCCCO)c3C.[Pt+2] [Example 67, Platinum Mesoporphyrin di(3-hydroxypropylamide)]  0.1 µM
3. CCC1=C(C)C2=Cc3c(CC)c(C)c4[n]3[Ga-2]35([Cl])[n]6c(c(C)c(CCCOCCOC)c6=CC6=[N+]3C(=C4)C(C)=C6CCCOCCOC)=CC1=[N+]25 [M=Ga R1=Et R3=Me R4=Et R2=CH2O(CH2)2OCH3]  0.43 µM
4. CCC1=C(C)C2=Cc3c(CC)c(C)c4[n]3[Ga-2]35([Cl])[n]6c(c(C)c(CCCOCCO)c6=CC6=[N+]3C(=C4)C(C)=C6CCCOCCO)=CC1=[N+]25 [M=Ga R1=Et R3=Me R4=Et R2=CH2O(CH2)2OH]  0.5 µM
5. CCC1=C(C)C2=[N+]3C1=Cc1c(C)c(CC)c4[n]1[Al-2]31([Cl])[n]3c(c(C)c(CCC(=O)NC)c3=CC3=[N+]1C(=C4)C(C)=C3CCC(=O)NC)=C2 [Example 61, Aluminum Chloride Mesoporphyrin N-methylamide]  2 µM
6. CCOP(=O)(CCCC1=C(C)c2cc3cc(C)c(cc4nc(cc5[n-]c(cc1n2)c(CCCP(=O)(OCC)OCC)c5C)C(C)=C4)[n-]3)OCC.[Cl-].[Ga+3] [Example 80, Gallium Chloride 3,7,12,17-tetramethylporphyrin-2,18-di((3′-diethylphosphono)propyl)]  2 µM
7. CCC1=C(C)C2=[N+]3C1=Cc1c(C)c(CC)c4[n]1[Ga-2]31([Cl])[n]3c(c(C)c(CCC(=O)NCCOCCO)c3=CC3=[N+]1C(=C4)C(C)=C3CCC(=O)NCCOCCO)=C2 [Example 16, Gallium Chloride Mesoporphyrin 2-ethoxyethanol amide]  2.9 µM
8. CC1=CC2=Cc3c(C)cc4[n]3[Ga-2]35([Cl])[n]6c(c(C)c(CCC(=O)NCCCO)c6=CC6=[N+]3C(=C4)C(C)=C6CCC(=O)NCCCO)=CC1=[N+]25 [Example 68, Gallium Chloride Deuteroporphyrin di(3-hydroxypropylamide)]  3 µM
9. CNC(=O)CCC1=C(C)C2=Cc3cc(C)c4[n]3[Ga-2]35([Cl])[n]6c(c(C)c(CCC(=O)NC)c6=CC1=[N+]23)=CC1=[N+]5C(=C4)C=C1C [Example 6, Gallium Chloride Deuteroporphyrin Methylamide]  4.05 µM

Same assay, conditions: Table 4 azaporphyrins, 575 nm (Pt azaporphyrins 532 nm), 1.25 J/cm^2, read-out: In Vitro EC(50)

In order of rising EC50:
1. CCC1=C(CC)C2=Nc3c(CC)c(CC)c4[n]3[In]([Cl])[n]3c(c(C)c(CCCO)c3=CC3=NC(=C4)C(C)=C3CCCO)=CC1=N2 [Example 104, Indium Chloride 7,8,12,13-tetraethyl-12,17-dimethyl-10-azaporphyrin-2,18-di(3′-hyroxypropyl)]  0.03 µM
2. CCC1=C(CC)C2=Nc3c(CC)c(CC)c4[n]3[Pt][n]3c(c(C)c(CCCO)c3=CC3=NC(=C4)C(C)=C3CCCO)=CC1=N2 [Example 105, Platinum 7,8,12,13-tetraethyl-12,17-dimethyl-10-azaporphyrin-2,18-di(3′-hyroxypropyl)]  0.04 µM
3. CCC1=C(CC)C2=Nc3c(CC)c(CC)c4[n]3[Al]([Cl])[n]3c(c(C)c(CCC(=O)NC)c3=CC3=NC(=C4)C(C)=C3CCC(=O)NC)=CC1=N2 [Example 93, Aluminum Chloride 7,8,12,13-tetraethyl-12,17-dimethyl-10-azaporphyrin-2,18-di(propionic acid methyl amide)]  0.1 µM
4. CCC1=C(C)c2nc1cc1[n-]c(cc3nc(cc4[n-]c(n2)c(C)c4CCC(=O)OC)C(CCC(=O)OC)=C3C)c(CC)c1C.[Cl-].[Ga+3] [Example 20, Gallium Chloride 5-azamesoporphyrin IX Dimethyl Ester]  0.4 µM
5. CCC1=C(CC)C2=[N+]3C1=Nc1c(CC)c(CC)c4[n]1[Pt-2]31[n]3c(c(C)c(CCC(=O)O)c3=CC3=[N+]1C(=C4)C(C)=C3CCC(=O)O)=C2.[K+].[K+] (stereo not shown) [Example 86, Platinum 7,8,12,13-tetraethyl-12,17-dimethyl-10-azaporphyrin-2,18-di(propionic acid Potassium Salt)]  0.4 µM
6. CCC1=C(CC)C2=[N+]3C1=Nc1c(CC)c(CC)c4[n]1[Ga-2]31([OH])[n]3c(c(C)c(CCC(=O)O)c3=CC3=[N+]1C(=C4)C(C)=C3CCC(=O)O)=C2.[Na+].[Na+] [Example 88, Gallium Hydroxy 7,8,12,13-tetraethyl-12,17-dimethyl-10-azaporphyrin-2,18-di(propionic acid Sodium Salt)]  0.5 µM
7. CCC1=C(C)c2nc1cc1[n-]c(cc3nc(cc4[n-]c(n2)c(C)c4CCC(=O)NCCCO)C(CCC(=O)NCCCO)=C3C)c(CC)c1C.[Cl-].[Ga+3] [Example 99, Gallium Chloride 5-azamesoporphyrin IX di(3′-hydroxypropyl amide)]  0.5 µM
8. CCC1=C(C)C2=NC1=Nc1c(C)c(CC)c3[n]1[Ga]([Cl])[n]1c(c(C)c(CCC(=O)NC)c1=CC1=NC(=C3)C(C)=C1CCC(=O)NC)=C2 [Example 94, Gallium Chloride 5-aza-mesoporphyrin IX Dimethyl Amide]  0.52 µM
9. COC(=O)CCC1=C(C)C2=Cc3c(C)c(C(C)OC)c4[n]3[Ga-2]35([Cl])[n]6c(c(C)c(CCC(=O)OC)c6=CC1=[N+]23)=CC1=[N+]5C(=N4)C(C)=C1C(C)OC (mixture of isomers) [M=Ga R1,R3=Me R2,R4=CH(OMe)CH3 R=CO2Me]  1 µM
10. CCC1=C(CC)c2nc1cc1[n-]c(cc3nc(cc4[n-]c(n2)c(CC)c4CC)C(C)=C3CCCOC)c(CCCOC)c1C.[Cl-].[Ga+3] [Example 106, Gallium Chloride 7,8,12,13-tetraethyl-12,17-dimethyl-10-azaporphyrin-2,18-di(3′-methoxypropyl)]  1 µM
11. CCC1=C(CC)C2=Nc3c(CC)c(CC)c4[n]3[Pt][n]3c(c(C)c(CCC(=O)NCCN(C)C)c3=CC3=NC(=C4)C(C)=C3CCC(=O)NCCN(C)C)=CC1=N2 [Example 103, Platinum 7,8,12,13-tetraethyl-12,17-dimethyl-10-azaporphyrin-2,18-di(propionic acid-2′-N,N-dimethylaminoethyl amide)]  1.2 µM
12. CCC1=C(CC)C2=Nc3c(CC)c(CC)c4[n]3[Ga]([Cl])[n]3c(c(C)c(CCC(=O)NCCOCCO)c3=CC3=NC(=C4)C(C)=C3CCC(=O)NCCOCCO)=CC1=N2 [Example 100, Gallium Chloride 7,8,12,13-tetraethyl-12,17-dimethyl-10-azaporphyrin-2,18-di(propionic acid-2-ethoxyethanol amide)]  1.3 µM
13. CCC1=C(CC)C2=Nc3c(CC)c(CC)c4[n]3[Pt][n]3c(c(C)c(CCC(=O)NCCOCCO)c3=CC3=NC(=C4)C(C)=C3CCC(=O)NCCOCCO)=CC1=N2 [Example 101, Platinum 7,8,12,13-tetraethyl-12,17-dimethyl-10-azaporphyrin-2,18-di(propionic acid-2-ethoxyethanol amide)]  1.5 µM
14. CCC1=C(CC)C2=Nc3c(CC)c(CC)c4[n]3[Pt][n]3c(c(C)c(CCC(=O)NCCOC)c3=CC3=NC(=C4)C(C)=C3CCC(=O)NCCOC)=CC1=N2 [Example 96, Platinum 7,8,12,13-tetraethyl-12,17-dimethyl-10-azaporphyrin-2,18-di(propionic acid-2′-methoxyethyl amide)]  1.9 µM
15. CCC1=C(CC)C2=Nc3c(CC)c(CC)c4[n]3[Ga]([Cl])[n]3c(c(C)c(CCC(=O)NCCOC)c3=CC3=NC(=C4)C(C)=C3CCC(=O)NCCOC)=CC1=N2 [Example 95, Gallium Chloride 7,8,12,13-tetraethyl-12,17-dimethyl-10-azaporphyrin-2,18-di(propionic acid 2′-methoxyethyl amide)]  2 µM
16. CCC1=C(CC)C2=Nc3c(CC)c(CC)c4[n]3[Pt][n]3c(c(C)c(CCC(=O)NCCCO)c3=CC3=NC(=C4)C(C)=C3CCC(=O)NCCCO)=CC1=N2 [Example 98, Platinum 7,8,12,13-tetraethyl-12,17-dimethyl-10-azaporphyrin-2,18-di(propionic acid-3′-hydroxypropyl amide amide)]  2 µM
17. CCC1=C(CC)C2=Nc3c(CC)c(CC)c4[n]3[Pt][n]3c(c(C)c(CCC(=O)NC)c3=CC3=NC(=C4)C(C)=C3CCC(=O)NC)=CC1=N2 [Example 92, Platinum 7,8,12,13-tetraethyl-12,17-dimethyl-10-azaporphyrin-2,18-di(propionic acid methyl amide)]  2.3 µM
18. CCC1=C(CC)C2=[N+]3C1=Nc1c(CC)c(CC)c4[n]1[Pt-2]31[n]3c(c(C)c(CCC(=O)OC)c3=CC3=[N+]1C(=C4)C(C)=C3CCC(=O)OC)=C2 (stereo not shown) [Example 85, Platinum 7,8,12,13-tetraethyl-12,17-dimethyl-10-azaporphyrin-2,18-di(propionic acid methyl ester)]  4 µM

Same assay, conditions: light EC50, metallodiazaporphyrins, read-out: In Vitro EC(50)

Compound CCC1=C(CC)C2=[N+]3C1=Nc1c(CC)c(CC)c4[n]1[Ga-2]31([Cl])[n]3c(c(CC)c(CC)c3=C2c2ccc(OC)cc2)=NC2=[N+]1C(=C4c1ccc(OC)cc1)C(CC)=C2CC [M=Ga, R1=Et, R2=Et, R3=p-(C6H4)OCH3] has an EC50 of 0.6 µM.
